Test results published in EP4818176A1, “TETRACYCLIC DERIVATIVE INHIBITOR, AND PREPARATION METHOD AND USE THEREFOR” (Shanghai Hansoh Biomedical Co., Ltd., priority 2023, dated 2025).
Where two headings read alike, the source gives them in different places.

Columns and labels:
hERG potassium channel = hERG potassium channel (Homo sapiens, UniProt Q12809); assay: hERG potassium channel inhibitory activity assay (CHO-hERG cells, tail current); type: cell-based; details: inhibition of tail current, read-out: inhibitory activity (IC50) against the cardiac hERG potassium channel
Excerpt: Test Example 5: hERG potassium channel inhibitory activity assay
1 Study objective: The objective of this test example is to determine the inhibitory effect of the compound on the hERG potassium channel activity. 2 Experimental instruments and reagents: 2.1 Reagents
3. Experimental method • 3.1 Cell culture: The CHO cells stably expressing the hERG potassium channel (CHO-hERG) used in the experiment were obtained from Sophion Bioscience (Ballerup, Denmark), and passaged and cryopreserved at WuXi AppTec Co., Ltd. in Shanghai. The CHO-hERG cells were cultured and passaged in Ham's F-12 medium containing 1 × GlutaMAX, 10% foetal bovine serum, 100 µg/mL G418 and 100 µg/mL hygromycin B at 37°C with 5% CO2. • 3.2 Preparation of intracellular and extracellular solutions: The extracellular solution was prepared once a month, and aliquoted and stored in 1 L storage bottles. The intracellular solution was prepared once every three months, and aliquoted and cryopreserved at -20°C. The intracellular solution was thawed in a 37°C water bath before the experiment and then placed in an ice bath for later use. • 3.3 Preparation of compounds: The positive control drug amitriptyline hydrochloride and the compounds were dissolved in 100% DMSO (Sigma-Aldrich, D2650) to prepare 10 mM or 30 mM stock solutions. Before the experiment, the stock solutions of the test compounds were diluted with DMSO to prepare solutions 1000-fold or 333-fold higher than the desired test concentrations, and then further diluted 1000-fold or 333-fold with the extracellular solution to achieve the desired concentrations. • 3.4 Cell preparation: The CHO-hERG cells used in the experiment were cultured for at least two days. When the cell density reached more than 75%, the cells were digested with TrypLE, then resuspended in the extracellular solution, and centrifuged. The supernatant was discarded, and then the cells were further resuspended in 2 mL of extracellular solution for later use. • 3.4 Experimental data processing: In data processing, the peak tail current was baseline-corrected when evaluating the hERG blocking effect. The effect of each compound at various concentrations was expressed as the inhibition rate of the tail current. IC50 values were obtained by fitting the data to the Hill equation: I/Icontrol =Bottom + (Top-Bottom)/(1+10^((LogIC50-X) * HillSlope)) • Top: maximum effect; Bottom: minimum effect; Hillslope: slope; X: concentration of the test compound. • IC50: half-maximal inhibitory concentration of the test compound on hERG.

[1] = target: T1, PRMT5/MEP50-MTA protein complex (Homo sapiens, UniProt O14744); assay: Thermal shift assay: thermal stability (melting temperature) of PRMT5/MEP50-MTA protein complex; type: binding; details: final compound concentration 8 µM; 2 µM PRMT5/MEP50, 2 µM MTA; Tm minus Tm of DMSO vehicle control
T1 construct: purchased Viva Biotech
In short: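 Human PRMT5/MEP50 (2 µM) was preincubated 30 min with 2 µM MTA in 50 mM HEPES, 10 mM DTT, 250 mM NaCl with SYPRO Orange. Compound at 8 µM final (2.5% DMSO vehicle) was added for 10 minutes, then samples were heated 25°C to 95°C at 0.03°C/s. Tm was derived from the melt curve.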

HCT116 wild-type cells = assay: Cell proliferation inhibition (CellTiter-Glo), HCT116 wild-type cells; type: cell-based
In short: (§1)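 Cells were grown in McCoy's 5A with 10% FBS, adhered overnight, then exposed to serial compound dilutions for 72-240 h at 37°C, 5% CO2, with a vehicle control. Viability was read as CellTiter-Glo luminescence, and IC50 came from nonlinear regression of inhibition rate against concentration.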

[2] = system: MTAP Knockout HCT116 cells; assay: Cell proliferation inhibition (CellTiter-Glo), HCT116 MTAP knockout cells; type: cell-based; details: for Selectivity: HCT116 IC50 versus MTAP Knockout HCT116 IC50
In short: as §1

[3] = Pharmacokinetics in rats (plasma) after oral administration; type: in vivo; details: SD rats, p.o. 5 mg/kg; for MRT inf: read-out: MRT0-∞
Procedure: Test Example 4: Determination of the pharmacokinetics of the compounds of the present invention in rats (plasma) after oral administration.
1 Study objective: SD rats were used as test animals to study the pharmacokinetic behaviour of the following example compounds in rats (plasma) after oral administration at a dose of 5 mg/kg. 2 Test scheme • 2.1 Test drugs: Vehicle formula: 0.5% CMC-Na (1% Tween 80); the examples of the present invention, made in house. • 2.2 Test animals: 3 SD rats per group, male, purchased from Shanghai Bikai Keyi Biotechnology Co., Ltd., with animal license number (SCXK (Shanghai) 2018-0006, No.20180006037467). • 2.3 Administration: 3 SD rats per group, male, were fasted overnight and then respectively administered PO at a dose of 5 mg/kg and a volume of 10 mL/kg. • 2.4 Sample collection: 0.2 mL of blood was collected from the jugular vein of rats before administration and at 0, 0.25, 0.5, 1, 2, 4, 6, 8 and 24 h after administration, and placed in EDTA-K2test tubes, and the test tubes were centrifuged at 6,000 rpm at 4°C for 6 min to separate the plasma, which was stored at -80°C. The animals were fed 4 h after administration. • 2.5 Sample treatment • 1) 160 uL of acetonitrile was added to 40 uL of plasma sample for precipitation, and after mixing, the mixture was centrifuged at 3,500 × g for 5-20 minutes. • 2) 100 uL of the treated supernatant solution was taken for LC/MS/MS analysis to determine the concentration of the test compounds. • 2.6 Liquid phase analysis • Liquid phase conditions: Shimadzu LC-20AD pump;mass spectrometry conditions: AB Sciex API 4000 mass spectrometer • Chromatographic column: Phenomenex Gemiu 5 um C18 50 × 4.6 mm • Mobile phase: solution A: 0.1% formic acid in water, solution B: methanol • Flow rate: 1.0 mL/min, elution time: 0-4.0 min, with eluents as follows:
Experimental results and analysis: The main pharmacokinetic parameters were calculated using WinNonlin 8.2.

[4] = Homo sapiens, HCT-116, HCT116 wild-type cells, proliferation inhibition, Cell Titer-Glo, read-out: HCT116 IC50
[5] = Homo sapiens, HCT-116, MTAP Knockout HCT116 cells, proliferation inhibition, Cell Titer-Glo, read-out: MTAP Knockout HCT116 IC50
[6] = Homo sapiens, HCT-116, read-out: HCT116 IC50
[7] = Homo sapiens, HCT-116, read-out: MTAP Knockout HCT116 IC50

T1 sequence (O14744 whole entry): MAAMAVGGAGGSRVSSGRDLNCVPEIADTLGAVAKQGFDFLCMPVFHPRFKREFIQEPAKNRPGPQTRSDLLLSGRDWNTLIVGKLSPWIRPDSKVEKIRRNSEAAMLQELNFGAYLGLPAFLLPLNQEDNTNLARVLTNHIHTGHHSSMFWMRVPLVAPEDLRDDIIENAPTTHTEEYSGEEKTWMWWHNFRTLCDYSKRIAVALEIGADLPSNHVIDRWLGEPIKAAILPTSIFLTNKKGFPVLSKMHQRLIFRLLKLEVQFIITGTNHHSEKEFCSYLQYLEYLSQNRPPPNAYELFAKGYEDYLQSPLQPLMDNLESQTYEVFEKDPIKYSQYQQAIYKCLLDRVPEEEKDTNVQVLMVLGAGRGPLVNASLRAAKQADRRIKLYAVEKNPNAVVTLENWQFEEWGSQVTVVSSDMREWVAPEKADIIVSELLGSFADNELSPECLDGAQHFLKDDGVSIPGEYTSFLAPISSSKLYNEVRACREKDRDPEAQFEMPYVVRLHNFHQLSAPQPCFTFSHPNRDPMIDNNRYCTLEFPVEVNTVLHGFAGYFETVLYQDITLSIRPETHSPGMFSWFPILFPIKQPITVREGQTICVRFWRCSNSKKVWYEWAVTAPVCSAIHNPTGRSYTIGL
T1 sequence (Q9BQA1 whole entry partner): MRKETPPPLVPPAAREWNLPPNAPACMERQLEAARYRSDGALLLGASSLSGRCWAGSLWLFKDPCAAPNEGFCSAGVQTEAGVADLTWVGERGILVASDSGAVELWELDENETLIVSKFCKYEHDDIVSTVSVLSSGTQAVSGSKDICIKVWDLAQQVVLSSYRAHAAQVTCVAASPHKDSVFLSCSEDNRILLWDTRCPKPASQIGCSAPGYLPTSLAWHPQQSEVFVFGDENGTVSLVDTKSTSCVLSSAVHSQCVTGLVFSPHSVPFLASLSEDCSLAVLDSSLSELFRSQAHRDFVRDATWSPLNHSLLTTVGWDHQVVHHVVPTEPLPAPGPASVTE
hERG potassium channel, sequence (Q12809 whole entry): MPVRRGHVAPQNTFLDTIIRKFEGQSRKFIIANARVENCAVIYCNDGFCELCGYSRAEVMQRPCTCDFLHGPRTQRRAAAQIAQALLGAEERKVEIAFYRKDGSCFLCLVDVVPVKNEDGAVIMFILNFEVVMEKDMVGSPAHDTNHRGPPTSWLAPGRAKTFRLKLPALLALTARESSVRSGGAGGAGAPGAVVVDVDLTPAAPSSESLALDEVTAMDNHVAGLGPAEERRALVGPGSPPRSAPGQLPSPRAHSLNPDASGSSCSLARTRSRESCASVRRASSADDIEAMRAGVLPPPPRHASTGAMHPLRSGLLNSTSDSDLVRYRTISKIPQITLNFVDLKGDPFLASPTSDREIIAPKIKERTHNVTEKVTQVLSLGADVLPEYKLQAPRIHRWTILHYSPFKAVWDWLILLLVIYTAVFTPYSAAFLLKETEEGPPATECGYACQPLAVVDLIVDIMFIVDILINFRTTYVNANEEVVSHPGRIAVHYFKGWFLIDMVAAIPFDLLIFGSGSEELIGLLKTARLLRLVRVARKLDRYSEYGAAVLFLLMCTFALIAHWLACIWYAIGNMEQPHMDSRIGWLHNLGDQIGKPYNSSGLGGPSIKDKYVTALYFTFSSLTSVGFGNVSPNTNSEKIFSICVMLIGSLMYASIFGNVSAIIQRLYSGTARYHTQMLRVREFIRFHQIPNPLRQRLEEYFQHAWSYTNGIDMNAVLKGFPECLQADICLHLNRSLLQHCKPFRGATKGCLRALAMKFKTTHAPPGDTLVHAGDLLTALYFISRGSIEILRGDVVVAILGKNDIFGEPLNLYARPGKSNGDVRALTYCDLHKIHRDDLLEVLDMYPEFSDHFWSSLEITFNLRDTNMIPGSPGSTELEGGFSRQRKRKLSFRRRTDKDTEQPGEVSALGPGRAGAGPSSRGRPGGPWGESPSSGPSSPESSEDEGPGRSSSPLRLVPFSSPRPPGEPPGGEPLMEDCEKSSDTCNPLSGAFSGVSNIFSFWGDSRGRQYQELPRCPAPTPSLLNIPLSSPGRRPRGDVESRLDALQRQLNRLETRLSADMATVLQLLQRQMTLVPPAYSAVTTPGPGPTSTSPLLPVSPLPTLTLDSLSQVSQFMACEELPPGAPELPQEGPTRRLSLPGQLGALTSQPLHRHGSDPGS

Molecule	IC50 (hERG potassium channel) [nM]	ΔTm at 8 µM [1] [°C]	IC50 (HCT116 wild-type cells; [4]) [nM]	Selectivity [2]	IC50 [2, 5] [nM]	IC50 (HCT116 wild-type cells; [6]) [nM]	IC50 [2, 7] [nM]	also measured
Nc1nc2cc3c(cc2n2cncc12)C(=O)N(Cc1ccc(C(F)(F)F)cn1)CCCOC3 [Example 176, 4-Amino-12-((5-(trifluoromethyl)pyridin-2-yl)methyl)-9,10,11,12-tetrahydroimidazo[1,5-a][1,5]oxazonino[8,7-g]quinoxalin-13(7H)-one]	> 30000	11.5	946	62	15			
Nc1nc2cc3c(cc2n2cncc12)C(=O)N(Cc1ccc(C(F)(F)F)cn1)CCCCOC3 [Example 417, 4-Amino-13-((5-(trifluoromethyl)pyridin-2-yl)methyl)-10,11,12,13-tetrahydro-7H-imidazo [1,5-a][1,6] oxazino [3,4-g] quinoxalin-14(9H)-one]	> 30000	11.1		346		3800	11	
Nc1nc2cc3c(cc2n2cncc12)C(=O)N(Cc1ccc(C(F)(F)F)cn1)CC/C=C\3 [Example 416, (Z)-4-Amino-11-(5-(trifluoromethyl)pyridin-2-yl)methyl-10,11-dihydroazocino[4,3-g]imidazo[1,5-a]quinoxalin-12(9H)-one]		12.4	222	93	2.4			AUC(0-inf) ([3]; male, rat, po): 1520 ng·h/mL; half-life ([3]; male, rat, po): 1.3 h; Cmax ([3]; male, rat, po, read-out: Cmax): 395 ng/mL; MRT inf ([3]; male, rat, po): 2.9 h; Tmax ([3]; male, rat, po, read-out: tmax): 2 h
Nc1nc2cc3c(cc2c2c1COC2)C(=O)N(Cc1ccc(C(F)(F)F)cn1)CC/C=C\3 [Example 638, (Z)-4-Amino-11-((5-(trifluoromethyl)pyridin-2-yl)methyl)-3,9,10,11-tetrahydronaphthyrido[3,4-g]furo[3,4-e]quinoxalin-12(1H)-one]		12.3		71		318	4.5	AUC(0-inf) ([3]; rat, po): 929 ng·h/mL; half-life ([3]; rat, po): 1.8 h; Cmax ([3]; rat, po, read-out: Cmax): 241 ng/mL; MRT inf ([3]; rat, po): 3.5 h; Tmax ([3]; rat, po, read-out: tmax): 1.7 h
Nc1nc2cc3c(cc2c2c1COC2)C(=O)N(Cc1ccc(C(F)(F)F)cn1)CCCOC3 [Example 178, 4-Amino-12-((5-(trifluoromethyl)pyridin-2-yl)methyl)-3,7,9,10,11,12-hexahydrofuro[3,4-c][1,5]oxazolino[7,8-g]quinolin-13(1H)-one]	> 30000	11.2		131		2380	18	AUC(0-inf) ([3]; rat, po): 2790 ng·h/mL; half-life ([3]; rat, po): 1.9 h; Cmax ([3]; rat, po, read-out: Cmax): 544 ng/mL; MRT inf ([3]; rat, po): 3.7 h; Tmax ([3]; rat, po, read-out: tmax): 1.7 h
Nc1nc2cc3c(cc2n2cncc12)C(=O)N(Cc1ccc(S(F)(F)(F)(F)F)cn1)CCCOC3 [Example 414, 4-Amino-12-((5-(pentafluoro-λ^6-sulphanyl)pyridin-2-yl)methyl)-9,10,11,12-tetrahydroimidazo[1,5-a][1,5]oxazonino[8,7-g]quinoxalin-13(7H)-one]		12.3	229	47	4.9			AUC(0-inf) ([3]; male, rat, po): 949 ng·h/mL; half-life ([3]; male, rat, po): 1.3 h; Cmax ([3]; male, rat, po, read-out: Cmax): 208 ng/mL; MRT inf ([3]; male, rat, po): 3.3 h; Tmax ([3]; male, rat, po, read-out: tmax): 2 h
Nc1nc2cc3c(cc2n2cncc12)C(=O)N(Cc1ccc(-c2c(F)cccc2F)cn1)CCCOC3 [Example 298, 4-Amino-12-((5-(2,6-difluorophenyl)pyridin-2-yl)methyl)-9,10,11,12-tetrahydroimidazo[1,5-a][1,5]oxazolo[8,7-g]quinoxalin-13(7H)-one]	> 30000	12.5		81		219	2.7	
(Z)-4-Amino-12-((5-(trifluoromethyl)pyridin-2-yl)methyl)-9,10,11,12-tetrahydro-13H-azonino[4,3-g]imidazo[1,5-a]quinoxalin-13-one [Example 171]				90				AUC 0-∞ [3]: 1058 ng·h/mL; Cmax [3]: 283 ng/mL; MRT0-∞ [3]: 2.9 h; Tmax [3]: 1.0 h; t1/2 [3]: 1.6 h; ΔTm (°C) [1]: 12.03 °C; IC50 (HCT116 wild-type cells; HCT116 wild-type cells, proliferation inhibition, Cell Titer-Glo, read-out: HCT116 IC50): 236 nM; IC50 ([2]; MTAP Knockout HCT116 cells, proliferation inhibition, Cell Titer-Glo, read-out: MTAP Knockout HCT116 IC50): 2.6 nM
